# Reference: PubChem BioAssay (NCI)
#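 Cells were grown in 96-well plates and exposed to each compound for 48 hours at five concentrations; endpoints were interpolated linearly between bracketing concentrations, or set to the highest concentration if not reached. Definition used: TGI = concentration required for complete inhibition of growth.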
# Tests used:
# Experiment in all cases: inhibition of tumour cell growth, NCI panel, 48 h
# SK-MEL-5 melanoma = tested on: SK-MEL-5 melanoma
# HCT-116 colon = tested on: HCT-116 colon
# MDA-MB-231 breast = tested on: MDA-MB-231 breast
# SNB-19 CNS = tested on: SNB-19 CNS
# CAKI-1 renal = tested on: CAKI-1 renal
# UACC-62 melanoma = tested on: UACC-62 melanoma
# SK-MEL-28 melanoma = tested on: SK-MEL-28 melanoma
# MALME-3M melanoma = tested on: MALME-3M melanoma
# OVCAR-8 ovarian = tested on: OVCAR-8 ovarian
# HCT-15 colon = tested on: HCT-15 colon
# IGROV1 ovarian = tested on: IGROV1 ovarian
# SW-620 colon = tested on: SW-620 colon
# TK-10 renal = tested on: TK-10 renal
# LOX IMVI melanoma = tested on: LOX IMVI melanoma
# T-47D breast = tested on: T-47D breast
# DU-145 prostate = tested on: DU-145 prostate
# NCI-H226 lung = tested on: NCI-H226 lung
# A549 NSCLC = tested on: A549 NSCLC
# UO-31 renal = tested on: UO-31 renal
# SN12C renal = tested on: SN12C renal
# KM12 colon = tested on: KM12 colon
# NCI-H23 lung = tested on: NCI-H23 lung
# SR leukemia = tested on: SR leukemia
# SF-268 CNS = tested on: SF-268 CNS
# MDA-MB-435 = tested on: MDA-MB-435
# HT29 colon = tested on: HT29 colon
# SK-OV-3 ovarian = tested on: SK-OV-3 ovarian
# OVCAR-5 ovarian = tested on: OVCAR-5 ovarian
# PC-3 prostate = tested on: PC-3 prostate
# ACHN renal = tested on: ACHN renal
# UACC-257 melanoma = tested on: UACC-257 melanoma
# CCRF-CEM leukemia = tested on: CCRF-CEM leukemia
# NCI-H460 lung = tested on: NCI-H460 lung
# SK-MEL-2 melanoma = tested on: SK-MEL-2 melanoma
# BT-549 breast = tested on: BT-549 breast
# HCC-2998 colon = tested on: HCC-2998 colon
# COLO 205 colon = tested on: COLO 205 colon
# HS 578T breast = tested on: HS 578T breast
# M14 melanoma = tested on: M14 melanoma
# NCI/ADR-RES ovarian = tested on: NCI/ADR-RES ovarian
# MCF7 breast = tested on: MCF7 breast
# SF-539 CNS = tested on: SF-539 CNS
# OVCAR-4 ovarian = tested on: OVCAR-4 ovarian
# U251 CNS = tested on: U251 CNS
# RPMI-8226 leukemia = tested on: RPMI-8226 leukemia
# RXF 393 renal = tested on: RXF 393 renal
# NCI-H522 lung = tested on: NCI-H522 lung
# MOLT-4 leukemia = tested on: MOLT-4 leukemia
# SF-295 CNS = tested on: SF-295 CNS
# HOP-92 NSCLC = tested on: HOP-92 NSCLC
# OVCAR-3 ovarian = tested on: OVCAR-3 ovarian
# HL-60(TB) leukemia = tested on: HL-60(TB) leukemia
# 786-0 renal = tested on: 786-0 renal
# MDA-N = tested on: MDA-N
# HOP-62 NSCLC = tested on: HOP-62 NSCLC
# EKVX NSCLC = tested on: EKVX NSCLC
# A498 renal = tested on: A498 renal
# K-562 leukemia = tested on: K-562 leukemia
# SNB-75 CNS = tested on: SNB-75 CNS
smiles,measurement,setting,value
C[C@H]1CC[C@H]([C@@H](C)[C@H]2[C@@H](O)C[C@H]3[C@@H]4CC[C@H]5C[C@@H](O)CC[C@]5(C)[C@H]4CC[C@]23C)NC1,TGI,SK-MEL-5 melanoma,44 µM
same,TGI,HCT-116 colon,31.7 µM
same,TGI,MDA-MB-231 breast,47.9 µM
same,TGI,SNB-19 CNS,50.2 µM
same,TGI,CAKI-1 renal,34.3 µM
same,TGI,UACC-62 melanoma,28.5 µM
same,TGI,SK-MEL-28 melanoma,36.1 µM
same,TGI,MALME-3M melanoma,33 µM
same,TGI,OVCAR-8 ovarian,32.2 µM
same,TGI,HCT-15 colon,36.6 µM
same,TGI,IGROV1 ovarian,35.4 µM
same,TGI,SW-620 colon,41.9 µM
same,TGI,TK-10 renal,38.1 µM
same,TGI,LOX IMVI melanoma,50.6 µM
same,TGI,T-47D breast,30.8 µM
same,TGI,DU-145 prostate,32 µM
same,TGI,NCI-H226 lung,39.5 µM
same,TGI,A549 NSCLC,51 µM
same,TGI,UO-31 renal,30.9 µM
same,TGI,SN12C renal,35.5 µM
same,TGI,KM12 colon,30.2 µM
same,TGI,NCI-H23 lung,32.5 µM
same,TGI,SR leukemia,24.7 µM
same,TGI,SF-268 CNS,67.1 µM
same,TGI,MDA-MB-435,32.3 µM
same,TGI,HT29 colon,34.2 µM
same,TGI,SK-OV-3 ovarian,31.7 µM
same,TGI,OVCAR-5 ovarian,49.4 µM
same,TGI,PC-3 prostate,31 µM
same,TGI,ACHN renal,53.7 µM
same,TGI,UACC-257 melanoma,35.7 µM
same,TGI,CCRF-CEM leukemia,29 µM
same,TGI,NCI-H460 lung,39.7 µM
same,TGI,SK-MEL-2 melanoma,46 µM
same,TGI,BT-549 breast,32.5 µM
same,TGI,HCC-2998 colon,35.5 µM
same,TGI,COLO 205 colon,45.7 µM
same,TGI,HS 578T breast,57.7 µM
same,TGI,M14 melanoma,59.2 µM
same,TGI,NCI/ADR-RES ovarian,32.6 µM
same,TGI,MCF7 breast,47.2 µM
same,TGI,SF-539 CNS,53.7 µM
same,TGI,OVCAR-4 ovarian,34.1 µM
same,TGI,U251 CNS,31.9 µM
same,TGI,RPMI-8226 leukemia,30.7 µM
same,TGI,RXF 393 renal,47.7 µM
same,TGI,NCI-H522 lung,30.8 µM
same,TGI,MOLT-4 leukemia,27.4 µM
same,TGI,SF-295 CNS,39.2 µM
same,TGI,HOP-92 NSCLC,33.7 µM
same,TGI,OVCAR-3 ovarian,39.8 µM
same,TGI,HL-60(TB) leukemia,20.2 µM
same,TGI,786-0 renal,37.1 µM
same,TGI,MDA-N,43.8 µM
same,TGI,HOP-62 NSCLC,58.1 µM
same,TGI,EKVX NSCLC,32.5 µM
same,TGI,A498 renal,32.1 µM
Cc1nn2c(=O)c([N+](=O)[O-])c(/C=C/c3ccco3)nc2s1,TGI,SK-MEL-5 melanoma,90.1 µM
same,TGI,HCT-116 colon,> 100 µM
same,TGI,MDA-MB-231 breast,> 100 µM
same,TGI,SNB-19 CNS,> 100 µM
same,TGI,CAKI-1 renal,> 100 µM
same,TGI,UACC-62 melanoma,> 100 µM
same,TGI,SK-MEL-28 melanoma,> 100 µM
same,TGI,MALME-3M melanoma,> 100 µM
same,TGI,OVCAR-8 ovarian,> 100 µM
same,TGI,HCT-15 colon,> 100 µM
same,TGI,IGROV1 ovarian,> 100 µM
same,TGI,SW-620 colon,> 100 µM
same,TGI,TK-10 renal,> 100 µM
same,TGI,LOX IMVI melanoma,50.4 µM
same,TGI,T-47D breast,> 100 µM
same,TGI,DU-145 prostate,> 100 µM
same,TGI,NCI-H226 lung,> 100 µM
same,TGI,A549 NSCLC,> 100 µM
same,TGI,UO-31 renal,> 100 µM
same,TGI,SN12C renal,> 100 µM
same,TGI,KM12 colon,> 100 µM
same,TGI,NCI-H23 lung,> 100 µM
same,TGI,SR leukemia,79.2 µM
same,TGI,SF-268 CNS,> 100 µM
same,TGI,MDA-MB-435,44.7 µM
same,TGI,HT29 colon,> 100 µM
same,TGI,SK-OV-3 ovarian,> 100 µM
same,TGI,OVCAR-5 ovarian,> 100 µM
same,TGI,PC-3 prostate,> 100 µM
same,TGI,ACHN renal,> 100 µM
same,TGI,K-562 leukemia,> 100 µM
same,TGI,UACC-257 melanoma,> 100 µM
same,TGI,CCRF-CEM leukemia,> 100 µM
same,TGI,NCI-H460 lung,> 100 µM
same,TGI,SK-MEL-2 melanoma,> 100 µM
same,TGI,BT-549 breast,> 100 µM
same,TGI,HCC-2998 colon,> 100 µM
same,TGI,COLO 205 colon,> 100 µM
same,TGI,HS 578T breast,89.1 µM
same,TGI,M14 melanoma,> 100 µM
same,TGI,NCI/ADR-RES ovarian,> 100 µM
same,TGI,MCF7 breast,> 100 µM
same,TGI,SF-539 CNS,> 100 µM
same,TGI,OVCAR-4 ovarian,> 100 µM
same,TGI,U251 CNS,> 100 µM
same,TGI,RPMI-8226 leukemia,> 100 µM
same,TGI,RXF 393 renal,> 100 µM
same,TGI,NCI-H522 lung,> 100 µM
same,TGI,MOLT-4 leukemia,> 100 µM
same,TGI,SF-295 CNS,> 100 µM
same,TGI,HOP-92 NSCLC,> 100 µM
same,TGI,OVCAR-3 ovarian,> 100 µM
same,TGI,HL-60(TB) leukemia,96.2 µM
same,TGI,786-0 renal,> 100 µM
same,TGI,MDA-N,76.5 µM
same,TGI,SNB-75 CNS,> 100 µM
same,TGI,HOP-62 NSCLC,> 100 µM
same,TGI,EKVX NSCLC,63.7 µM
